Broadly, the Kd is the equilibrium constant for the complex coming apart. The Ki is a dissociation constant, usually derived from enzyme kinetics or from competition with a known ligand.

Data set [1] in a line: Lipophilicity (log Doct/PBS) by partition between 1-octanol and PBS. Format: physicochemical. The settings on record: 1-octanol/PBS pH 7.4, mean ± SD, N = 6. The method, then:
Lipophilicity of the employed compounds was determined by a conventional partition method between 1-octanol and phosphate buffered saline (PBS), pH 7.4. The 1-octanol was saturated with PBS before use. Briefly, the no-carrier-added tracers, contained in 0.2 mL PBS, were added 0.2 mL of 1-octanol in a 1.5-mL polypropylene Eppendorf vial. The vial was sealed and vigorously shaken at room temperature for 5 min. The mixture was then centrifuged at 3,000 g for 10 min. A 100 μL aliquot from each of the two phases was drawn and their radioactivity content was determined in a NaI (Tl) well-type detector. The log Doct/PBS was calculated as follows: log Doct/PBS = log (radioactivity concentration in the 1-octanol phase/radioactivity concentration in the PBS phase). The reported values represent the mean of six independent measurements.

In the next data set the test system is Aβ plaques. As to the kind of experiment: Small animal PET imaging in APP/PS1 tg and control mice (cortex + hippocampus-to-cerebellum PET ratio). The class given is in vivo, mouse. As to conditions: for Mean PET ratio (SUVR ± SD), cortex + hippocampus to cerebellum: 36 to 45 min; for SUVRtg/SUVRctl (tg/ctl): ratio of APP/PS1 tg to control mice SUVR. As to the method:
Inhalation anesthesia with isoflurane was used and the eyes of the animals were protected with dexpanthenol eye ointment. Anesthesia was initiated 15 min ahead of experiments by placing the animal in a cage ventilated with oxygen (3.5 L/min) containing 3% isoflurane. Throughout the experiments, anesthesia was maintained by adjusting the isoflurane content (0.6% to 2%) to ensure a respiratory rate in the range 80 to 100/min. For i.v. injection, we inserted a tailored catheter into the lateral tail vein. Simultaneously with a slow bolus injection of 50 to 200 μL of tracer solution, we started the PET with scan duration of 45 min in 3D list mode on a Siemens Inveon system (axial field-of-view of 12.7 cm with a bore diameter of 12 cm, approximately 1.4 mm full-width-at-half-maximum spatial resolution; Siemens Healthcare, Erlangen, Germany). After tracer injection, we flushed the catheter with 50 to 100 μL of isotonic sodium chloride solution. During the scan, a heating pad prevented hypothermia. The radioactivity in the syringe was measured immediately before and after injection with a Capintec CRC® 15R (Capintec Inc, 6 Arrow Road Ramsey, NJ, USA) dose calibrator.
Based on our experience, variance of macroscopic brain anatomy is very low across mice with the same genetic background. Therefore, the creation of a MRI template was done by manual co-registration of all MR images based on prominent brain structures and the overall cortical contour and calculation of a mean image (Pmod 3.3, Pmod Technologies, Zurich, Switzerland). Structures outside of the brain were not considered in the manual co-registration process. Two major volume-of-interests (VOIs) were defined on the MRI template, one comprising the full cortex including hippocampus, the other comprising the full cerebellum. The same VOIs were then used for reading out co-registered PET data of a mean image of the final 10 min of the scan (minute 36 to 45). The VOIs were chosen based on previous findings in a voxel-based analysis of cerebral PiB uptake and its correlation with the underlying Aβ pathology in this mouse model. PET data was normalized and corrected for decay and dead time. The images were reconstructed by means of filtered back-projection (FBP), using a ramp filter with a cutoff at the Nyquist frequency into 45 frames (45 × 60 s). The image volume consisted of 128 × 128 × 159 voxels, each of a size of 0.78 × 0.78 × 0.80 mm. The PET images were manually co-registered with the MRI template. This was done by using the wash-in phase of the tracer to identify the brain contour for alignment with the MRI template. We scaled the PET images to percentage of injected dose per cubic centimeter. We then applied these VOIs to the co-registered PET images and exported the VOI values to Microsoft Excel 2010 in order to calculate cortex + hippocampus-to-cerebellum ratios (further referred to as PET ratios).
We tested the tg/ctl ratios for significance. First, we performed a one-way ANOVA between the three groups showing significance.

In data set [2] the target is Aβ aggregates. The settings on record: post mortem AD brain homogenates; cited from earlier work.
A further data set relates to Aβ deposits. As to the kind of experiment: Ex vivo autoradiography, cortex/cerebellum uptake ratio. Format: in vivo, mouse. As to conditions: n ≥ 3. As to the method: In the present study, ex vivo autoradiography of [^18F]FIBT and [^18F]Florbetaben (Figure SI-1) were performed following a published procedure (Manook et al., 2012).
Figure SI-1. [^18F]FIBT and [^18F]Florbetaben autoradiography and cortex/ cerebellum uptake ratio (n≥ 3). Images of digital ex vivo autoradiography of a 12 µm thick axial section of age- and gender matched control (A and C) and APP/PS1 tg mouse brain (B and D). [^18F]FIBT (A and B), and [^18F]Florbetaben (C and D).

Data set [3] concerns the target Aβ aggregates. Set-up: method as in PMID 24900362. As to conditions: versus [^3H]PiB; cited from earlier work.
Data set [4] is described as follows: Ex vivo brain uptake studies in BALB/c mice. Set-up: species or system mouse. As to conditions: BALB/c mice without Aβ pathology, compared to [^18F]FIBT. The method, then:
Ex vivo brain uptake studies were performed in male BALB/c mice (mean ± SD body weight: 23 ± 2 g). […] Groups of mice were killed at 5 and 30 min p.i. Radioactivity of weighted brain samples was measured in a γ-counter (Wallac 1480-011 Automatic Gamma Counter, PerkinElmer, Waltham, MA, USA). Data are expressed as percent of the injected dose per gram tissue (% I.D./g; mean ± SD, N = 5).

Setting [5] is: APP/PS1 tg mice (N = 4), 24-month-old.

Regarding `CNc1ccc(-c2cn3c(n2)sc2cc(OCC[18F])ccc23)cc1` [[^18F]FIBT, 2-(p-methylaminophenyl)-7-(2-[^18F]fluoroethoxy)imidazo[2,1-b]benzothiazole], in data set [1], the “Log D oct/PBS” value is recorded as 1.92 ± 0.06. In addition, the entries for the “Mean PET ratio (SUVR ± SD), cortex + hippocampus to cerebellum” value with Aβ plaques (setting [5]) and with Aβ plaques (C57BL6/J control mice (N = 3)) were 1.68 ± 0.15 and 0.95 ± 0.02, respectively. In addition, the “SUVRtg/SUVRctl (tg/ctl)” value with Aβ plaques is listed as 1.78 ± 0.16. For the same molecule, the Kd on Aβ aggregates [2] is 0.7 ± 0.2 nM. The results for the Ctx/Clb ratio in the data set with Aβ deposits (APP/PS1 tg mouse brain) and in the data set on Aβ deposits (Ctl mouse brain) were 4.7 ± 0.3 and 1.1 ± 0.1, respectively. In addition, the Ki on Aβ aggregates [3] was 2.1 ± 0.8 nM.

For the molecule `CNc1ccc(-c2nc3ccc(O)cc3s2)cc1` [[^11C]PiB, Pittsburgh compound B], in the data set on Aβ plaques, the “SUVRtg/SUVRctl (tg/ctl)” value stood at 2.11 ± 0.24.

For the molecule `CNc1ccc(/C=C/c2ccc(OCCOCCOCCF)cc2)cc1` [[^18F]florbetaben, florbetaben], the logD at 5 min in data set [1] (read-out: Log D oct/PBS) is 1.58 ± 0.13. For the same molecule, the Initial brain uptake result in data set [4] (5 min p.i.) was “lower initial uptake”. The Brain tracer retention entry in data set [4] (30 min p.i.) was “higher tracer retention”. Also, the “Mean PET ratio (SUVR ± SD), cortex + hippocampus to cerebellum” value with Aβ plaques (setting [5]) worked out at 1.35 ± 0.06; with Aβ plaques (C57BL6/J control mice (N = 3)), 0.90 ± 0.01. The “SUVRtg/SUVRctl (tg/ctl)” value in the data set on Aβ plaques turned out to be 1.50 ± 0.06. Besides, the Kd on Aβ aggregates [2] was 6.7 ± 0.3 nM. Besides, the Ctx/Clb ratio in the data set with Aβ deposits (APP/PS1 tg mouse brain) was determined as 2.0 ± 0.3; in the data set on Aβ deposits (Ctl mouse brain), 1.3 ± 0.1.

These data come from article PMC4402683, “FIBT versus florbetaben and PiB: a preclinical comparison study with amyloid-PET in transgenic mice” (EJNMMI Research, 2015).
